Data as given in a melting point compilation (Tetko et al.; mined from patent text by program, amines drawn as free bases though some values may be those of a salt).

Compared with `Cc1ccc(-c2ccc(C(=O)Nc3ccc4cc(CN5CCCCCC5)cnc4c3)cc2)cc1`, `O=C(c1ccc(-c2ccc3c(c2)CCN(C2CCN(Cc4ccccc4)CC2)C3=O)cc1)N1CCCC1` is lower in melting point: 209 °C for the first, 197 to 198 °C for the second.

First: Cc1ccc(Oc2c([N+](=O)[O-])cc(C(=O)O)cc2S(N)(=O)=O)cc1
Second: O=C(O)CS(=O)(=O)c1ccc2c(-c3ccc(Cl)cc3)noc2c1
The melting point of the first is higher: 236 °C for the first, 201 to 203 °C for the second.

Compared with `O=[N+]([O-])c1cc(CS(=O)(=O)CCO)ccc1CS(=O)(=O)CCO`, `CSC12SCC(COC(C)=O)(OS(C)(=O)=O)C(C(=O)OCc3ccc([N+](=O)[O-])cc3)N1C(=O)C2N=[N+]=[N-]` (stereo unspecified) is higher in melting point: 125 to 126 °C for the first, 147 °C for the second.

Compared with `CON(C)C(=O)/C=C/c1c(C2CC2)nc2ccccc2c1-c1ccc(F)cc1`, `O=C(O)c1ccc(/C=C/c2cnc3ccccc3c2)cc1` is higher in melting point: 141 °C for the first, 287 to 290 °C for the second.

Compared with `O=C(Nc1cnc(-c2ccccc2)nc1Cl)OCc1ccccc1`, `Cc1nc(-c2n[nH]c(Cc3ccccc3)n2)sc1C(=O)NCc1ccccc1` is higher in melting point: 120 to 121 °C for the first, 235 to 237 °C for the second.

First: CCC(=O)c1ccc(=O)[nH]c1C
Second: CCCCCCC(=O)c1ccc(O)c(Cl)c1Cl
The melting point of the first is higher: 173 to 175 °C for the first, 82 to 84 °C for the second.

Compared with `CCOC(=O)CCc1cc(-c2cc3ccccc3c(=O)o2)ccc1OC`, `CCOC(=O)c1c(CCc2ccc(OC)cc2)oc2ccc(C#N)cc12` is higher in melting point: 105 to 106 °C for the first, 135 to 139 °C for the second.

Compared with `COc1ccc(CS[C@@H]2CN[C@H](C(N)=O)C2)cc1`, `COc1ccc(Cn2cccc2C(=O)CC(=O)C(=O)O)cc1` is higher in melting point: 120 to 121 °C for the first, 167 to 168 °C for the second.

First: COc1ccc2c(Cc3c(Cl)cncc3Cl)nnc(CN3CCOCC3)c2c1
Second: O=C(Nc1ccc(Oc2ccnc(N3CCOCC3)n2)c2ccccc12)c1cc(F)cc(N2CCOCC2)c1
The melting point of the first is higher: 203 to 206 °C for the first, 104 to 106 °C for the second.

Compared with `CCOC(=O)c1ncc2c(c1COC)c1c(OS(=O)(=O)C(F)(F)F)cccc1n2S(=O)(=O)C(F)(F)F`, `NS(=O)(=O)c1nnc(NC(=O)c2cnn3c(C(F)(F)F)cc(-c4ccc(C(F)(F)F)cc4)nc23)s1` is higher in melting point: 60 to 62 °C for the first, 280 °C for the second.

First: c1cncc(CC2CCN(CC34CC(c5ccccc53)c3ccccc34)CC2)c1
Second: O=C(O)[C@@]12C[C@@H](c3ccccc31)c1ccc(Cl)cc12
The melting point of the first is higher: 183 to 185 °C for the first, 172 to 173 °C for the second.

Compared with `CCCSc1nc(C)c(CO)n1-c1ccccc1Cl`, `CCCCc1nn2c(C)c(C)nc2n1Cc1ccc(-c2ccccc2-c2nnn[nH]2)cc1` is higher in melting point: 98 to 101 °C for the first, 138 to 141 °C for the second.

Compared with `Cc1cc(C)cc(-c2nc(N)sc2-c2ccnc(OCc3ccccc3)c2)c1`, `Cc1cc(-c2cc(O)c(SCCc3ccccc3)c(=O)o2)ccc1OCc1cccnc1` is higher in melting point: 141 to 143 °C for the first, 149 to 151 °C for the second.

First: CCCC(CCC)n1nnc2c(Cl)nc(C)cc21
Second: CCC[C@H]1[C@@H](O)CC(=O)N1c1ccc(C#N)c(Cl)c1
The melting point of the first is lower: 90 to 91 °C for the first, 143 to 146 °C for the second.

First: COc1cc(OC)c(-c2cc3ccccc3n2C)cc1C=CC(=O)c1ccc(S(=O)(=O)NCc2cccnc2)cc1
Second: COC(=O)c1ccc(-c2ccccc2-c2nnn(C(C)(C)c3ccccc3)n2)cc1
The melting point of the first is higher: 202 to 203 °C for the first, 97 to 98 °C for the second.

First: CC(C)Cn1c(CNC(=O)OC(C)(C)C)c(-c2ccccc2F)c2cc(C(=O)O)ccc2c1=O
Second: CCCCc1nn(-c2cc(NC(=O)CC)ccc2Br)c(=O)n1Cc1ccc(-c2ccccc2S(=O)(=O)NC(C)(C)C)cc1F
The melting point of the first is higher: 213 to 214 °C for the first, 119 to 121 °C for the second.

First: CCN(CC)c1ccc2c(c1)Oc1cc(N(Cc3ccccc3)C(C)=O)c3ccccc3c1N2C(C)=O
Second: COc1cc(COc2nn(Cc3ccccc3)cc2CO)ccc1OCc1nc(-c2ccco2)oc1C
The melting point of the first is higher: 202 to 204 °C for the first, 104 to 105 °C for the second.

First: CCOC(=O)C(=O)N(c1ccccc1[N+](=O)[O-])C(C)(C)C
Second: O=[N+]([O-])c1cccc2c(O)ccnc12
The melting point of the first is lower: 73 to 74 °C for the first, 204 to 206 °C for the second.

Compared with `OC1CCc2[nH]c3ccccc3c2C1` (stereo unspecified), `CC1(C)OCCc2c1[nH]c1ccccc21` is higher in melting point: 140 °C for the first, 142 to 144 °C for the second.

Compared with `COc1ccnc(CSc2nc3c(C)c(OC(F)F)c(C)cc3[nH]2)c1C`, `Cc1cc(OCc2nc(-c3ccc(C(F)(F)F)cc3)no2)ccc1OC(C)(C)C(=O)O` is lower in melting point: 190 to 191 °C for the first, 170 °C for the second.

First: O=C(O)CCNC(=O)C(Cl)(Cl)Cl
Second: CCOC(=O)CCc1cc(Cl)c(Cl)cc1C(=O)CCCNC(C)=O
The melting point of the first is higher: 102 to 110 °C for the first, 63 to 65 °C for the second.

Compared with `Cc1oc(-c2ccc(F)cc2)cc1C(=O)O`, `O=C(O)c1ccc(-n2sc(-c3ccccc3)cc2=O)cc1` is higher in melting point: 217 to 218 °C for the first, 238 to 240 °C for the second.

First: O=C(O)Cc1c(Cl)cc([N+](=O)[O-])cc1Cl
Second: CC1(C)CC(=O)C(c2c(Cl)cc(N)cc2Cl)C(=O)C1
The melting point of the first is lower: 206 to 207 °C for the first, 243 °C for the second.

First: CCCCCCc1ccc(C#Cc2ccc(C=O)cc2)cc1
Second: Nc1ccc(Cn2nc3ccccc3n2)cc1
The melting point of the first is lower: 67 °C for the first, 229 to 230 °C for the second.

Compared with `Cc1ccccc1C=CC(=O)OCCc1ccccc1`, `NCCC(Nc1ccccc1)c1ccccc1` (stereo unspecified) is higher in melting point: 52 to 53 °C for the first, 104 to 105 °C for the second.

First: COc1ccccc1P1(=O)c2ccccc2CN1c1ccccc1 (stereo unspecified)
Second: COc1ccccc1C(=O)c1cccc(Br)n1
The melting point of the first is higher: 189 to 191 °C for the first, 97 to 98 °C for the second.

Compared with `CN1CCN(c2ccccc2C(F)(F)F)C(C2=NCCN2)C1` (stereo unspecified), `COc1cn(-c2cc(N3CCCC3=O)ccc2F)nc(-c2ccnn2-c2ccccc2)c1=O` is higher in melting point: 163 to 165 °C for the first, 171 to 174 °C for the second.

First: Cc1cccc(NC(=O)Nc2nnc(C(F)(F)F)s2)c1
Second: COc1cc(C)nc(Nc2ccccc2)n1
The melting point of the first is higher: 255 to 257 °C for the first, 75 to 76 °C for the second.

First: COC(=O)N(C)c1cccc(-c2ccc3nncn3n2)c1
Second: O=C(O)c1cccn2cc(-c3ccccc3)nc12
The melting point of the first is lower: 195 to 199 °C for the first, 226 °C for the second.

`CNC(=N[N+](=O)[O-])SC` and `COc1cc(C2NC(C(=O)O)CS2)ccc1OCC(=O)NCCO[N+](=O)[O-]` (stereo unspecified) cannot be ordered by melting point: 150 to 152 °C for the first, 151 to 152 °C for the second.

First: O=C(O)CCCOc1ccc([C@H]2c3ccc(O)cc3OC[C@H]2c2ccccc2)cc1 (racemic)
Second: COC(=O)COc1cccc(OCCC(c2ccccc2)(c2ccccc2)c2ccccc2)c1
The melting point of the first is lower: 91.5 to 94 °C for the first, 103 to 105 °C for the second.

First: CC(C)c1ccc(C(C)(C)C)c(O)c1C(=O)Nc1ccc(S(=O)(=O)C(F)(F)F)cc1Cl
Second: CS(=O)(=O)c1ccc(/C(=C(\CC(=O)O)C(=O)O)c2ccc(Cl)cc2)cc1
The melting point of the first is lower: 116 °C for the first, 199 to 200 °C for the second.

First: NC(=O)N1C(=O)C(C(=O)c2sccc2F)c2cc(Cl)ccc21 (stereo unspecified)
Second: O=C(O)C1=Cc2cc(Cl)c(Oc3ccc(F)c(F)c3)cc2OC1C(F)(F)F (stereo unspecified)
The melting point of the first is higher: 235 to 240 °C for the first, 192 to 193 °C for the second.

First: COC(=O)Cc1c(C(=O)OC)ccn1CCBr
Second: COCCN(CCOC)C(=O)c1cccc(NC(=O)Oc2ccccc2)c1
The melting point of the first is higher: 129 to 130 °C for the first, 116 to 118 °C for the second.

Compared with `CN1OCC/C(=C\c2nc(C(C)(C)C)c(O)c(C(C)(C)C)n2)C1=O`, `COc1cc2c(c3c1OC(C)(C)C3)C(c1ccc(=O)n(-c3cc(C)ccn3)c1)=NC(C)(C)C2` is lower in melting point: 180 to 181 °C for the first, 161 to 162 °C for the second.

First: O=S1(=O)CCN2C=CC=C(c3ccc(Oc4ccc(C(F)(F)F)cc4)cc3)C2=N1
Second: O=C(c1cccs1)c1cnn2c(-c3ccc(F)c(Br)c3)ccnc12
The melting point of the first is higher: 253 to 255 °C for the first, 74 to 76 °C for the second.

Compared with `CCOC(=O)c1sc(Oc2ccccc2)c2c1CCC(C(OCC)OCC)C2=O` (stereo unspecified), `CCC(CC)COc1ccc(-n2cc(C(=O)O)cn2)cc1C#N` is higher in melting point: 73 to 74 °C for the first, 180 to 182 °C for the second.

Compared with `COC1CC(OC)(OC)C(=O)N1` (stereo unspecified), `COC1CCC2C3CCC4CC(=NO)C(C)CC4(C)C3CCC12C` (stereo unspecified) is higher in melting point: 86 °C for the first, 203 to 211 °C for the second.

First: Cc1sc(COc2ccc(/C=C/C=O)cc2)nc1-c1ccccc1
Second: CCC1(CO)C=NC(c2nn(Cc3ccccc3F)c3ccccc23)O1 (stereo unspecified)
The melting point of the first is lower: 116 to 117 °C for the first, 137 to 139 °C for the second.

Compared with `CCCCN=C(CS(C)=O)c1cc2ccccc2cc1O` (stereo unspecified), `CN(c1cccc2cc(-c3ncc(CCC(=O)O)s3)[nH]c12)S(=O)(=O)c1cccs1` is higher in melting point: 162 to 164 °C for the first, 234 to 235 °C for the second.

Compared with `CCS(=O)(=O)C(F)(F)C(Cn1cncn1)(OP(=O)(O)O)c1ccc(F)cc1F` (single isomer, unassigned; (+)), `Cn1cc(S(C)(=O)=O)c(=O)c2ccc(F)cc21` is higher in melting point: 212 to 214 °C for the first, 222 to 224 °C for the second.

First: COc1ccc(OC)c(CCc2ccc3ncn(C)c(=O)c3c2)c1
Second: Cn1ccc(=O)c(O)c1Cc1cccnc1
The melting point of the first is lower: 83 to 85 °C for the first, 209 to 212 °C for the second.

Compared with `COc1ccc(-c2nc3cc(Cl)cc(C#CCN(O)C(=O)OC(C)(C)C)c3o2)cc1OC1CCCC1`, `O=C(NCCO)c1cccc(-c2ccc3c(c2)N(c2cc(Cl)cc(Cl)c2)CC3)c1` is lower in melting point: 157 to 161 °C for the first, 108 to 109 °C for the second.

First: C=CCC(O)CCCCCCCCCOc1ccccc1 (stereo unspecified)
Second: CCOC(=O)c1cnoc1-c1cccc(Cl)c1
The melting point of the first is lower: 50 to 52 °C for the first, 75 to 77 °C for the second.

First: COc1ccc(C(CC(=O)O)N2C(=O)C3C=C(Cl)C(Cl)=C(Cl)C3(Cl)C2=O)cc1 (stereo unspecified)
Second: CN(C)C(=O)CON(Cc1ccc(F)cc1)C(=O)C1=C(O)C(=O)N(C)C1
The melting point of the first is higher: 236 to 238 °C for the first, 147 to 149 °C for the second.

First: O=C(Nc1cccc(O)c1)C(=O)N1CCC(Cc2ccc(F)cc2)CC1
Second: NC(=O)C1(Nc2ccccc2)CCN(C2CCC(c3ccc(F)cc3)(c3ccc(F)cc3)CC2)CC1
The melting point of the first is lower: 175 to 179 °C for the first, 224 to 227 °C for the second.

Compared with `Cc1[nH]c(=O)n(C(C)C)c1-c1ccc(C2CCCCC2)cc1`, `CC(C)Nc1nc(Nc2cccc(NS(C)(=O)=O)c2)nc2[nH]cnc12` is lower in melting point: 274 °C for the first, 161 to 165 °C for the second.

First: Cn1nc(C(F)(F)F)c(C(=O)O)c1N
Second: CCCCCC1(C(=O)O)CC2=C(C1)C(C)(C)CCC2(C)C
The melting point of the first is higher: 216 to 218 °C for the first, 57 to 58 °C for the second.

First: O=c1[nH]c2ccc(Cl)cc2s1
Second: CCCCC1CCCc2oc(C(=N)N)cc21 (stereo unspecified)
The melting point of the first is lower: 212 to 213 °C for the first, 243 to 245 °C for the second.

First: OCc1c(Br)c(Br)c(CO)c(Br)c1Br
Second: O=C(NCCOC1CCCCO1)c1cc([N+](=O)[O-])cc([N+](=O)[O-])c1N(CCO)CCBr (stereo unspecified)
The melting point of the first is higher: 248 °C for the first, 121 to 123 °C for the second.

Work on `C=C1CCC2C3CCC4=CC(=O)CCC4C3CCC12C` (stereo unspecified) yielded a melting point of 83 to 89 °C.
